Data published in paper PMC12090182, “Repurposing of the RIPK1-Selective Benzo[1,4]oxazepin-4-one Scaffold for the Development of a Type III LIMK1/2 Inhibitor” (ACS Chemical Biology, 2025).
Read-outs that look alike come from different tables or passages of the source.

What was measured:
[1] = target: PIK3CA(E542K) (Homo sapiens, UniProt P42336, E542K); assay: biochemical; format: binding; conditions: read-out: Percent Control
[2] = target: EGFR(L747-S752del, P753S) (Homo sapiens, UniProt P00533, DEL747-752/P753S); assay: biochemical; format: binding; conditions: read-out: Percent Control
[3] = target: EGFR(E746-A750del) (Homo sapiens, UniProt P00533, DEL746-750); assay: biochemical; format: binding; conditions: read-out: Percent Control
[4] = target: ABL1(F317I)-nonphosphorylated (Homo sapiens, UniProt P00519, F317I); assay: biochemical; format: binding; conditions: read-out: Percent Control
[5] = target: ABL1(T315I)-phosphorylated (Homo sapiens, UniProt P00519, T315I); assay: biochemical; format: binding; conditions: compound concentration 100 nM; Entrez ABL1; read-out: Percent Control
[6] = target: EGFR(L747-E749del, A750P) (Homo sapiens, UniProt P00533, A750P/DEL747-749); assay: biochemical; format: binding; conditions: read-out: Percent Control
[7] = target: PIK3CA(H1047Y) (Homo sapiens, UniProt P42336, H1047Y); assay: biochemical; format: binding; conditions: compound concentration 100 nM; Entrez PIK3CA; read-out: Percent Control
[8] = target: EGFR(L858R,T790M) (Homo sapiens, UniProt P00533, L858R/T790M); assay: biochemical; format: binding; conditions: compound concentration 100 nM; Entrez EGFR; read-out: Percent Control
[9] = target: 468 kinases including some pathogenic mutants (Homo sapiens, UniProt P0C1S8); assay: biochemical; format: binding; conditions: WEE2 (Entrez WEE2), 100 nM; read-out: Percent Control
[10] = target: 468 kinases including some pathogenic mutants (Homo sapiens, UniProt Q8IW41); assay: biochemical; format: binding; conditions: MAPKAPK5 (Entrez MAPKAPK5), 1000 nM; read-out: Percent Control
[11] = target: 468 kinases including some pathogenic mutants (Homo sapiens, UniProt P42336, M1043I); assay: biochemical; format: binding; conditions: read-out: Percent Control
[12] = target: 468 kinases including some pathogenic mutants (Homo sapiens, UniProt P30291); assay: biochemical; format: binding; conditions: WEE1 (Entrez WEE1), 100 nM; read-out: Percent Control
[13] = target: 468 kinases including some pathogenic mutants (Homo sapiens, UniProt Q13153); assay: biochemical; format: binding; conditions: PAK1 (Entrez PAK1), 100 nM; read-out: Percent Control
468 kinases including some pathogenic mutants (Homo sapiens, UniProt Q13153), sequence (Q13153 whole entry, change not shown): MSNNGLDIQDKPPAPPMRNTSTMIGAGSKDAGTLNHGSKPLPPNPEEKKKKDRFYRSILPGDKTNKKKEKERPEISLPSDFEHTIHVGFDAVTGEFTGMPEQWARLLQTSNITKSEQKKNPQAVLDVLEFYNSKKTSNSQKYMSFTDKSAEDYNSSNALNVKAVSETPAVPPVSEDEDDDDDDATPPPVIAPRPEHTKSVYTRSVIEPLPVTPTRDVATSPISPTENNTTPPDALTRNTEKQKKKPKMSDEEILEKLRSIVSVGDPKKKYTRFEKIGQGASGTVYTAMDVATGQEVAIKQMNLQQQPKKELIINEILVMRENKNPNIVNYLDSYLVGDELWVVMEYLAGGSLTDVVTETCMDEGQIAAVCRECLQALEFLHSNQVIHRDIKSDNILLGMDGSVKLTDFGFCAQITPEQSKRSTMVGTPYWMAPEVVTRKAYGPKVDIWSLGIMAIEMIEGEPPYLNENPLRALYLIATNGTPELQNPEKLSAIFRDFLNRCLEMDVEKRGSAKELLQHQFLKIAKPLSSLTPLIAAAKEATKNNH

[14] = target: 468 kinases including some pathogenic mutants (Homo sapiens, UniProt P10721); assay: biochemical; format: binding; conditions: 100 nM, read-out: Percent Control
468 kinases including some pathogenic mutants (Homo sapiens, UniProt P10721), sequence (P10721 26-976, change not shown): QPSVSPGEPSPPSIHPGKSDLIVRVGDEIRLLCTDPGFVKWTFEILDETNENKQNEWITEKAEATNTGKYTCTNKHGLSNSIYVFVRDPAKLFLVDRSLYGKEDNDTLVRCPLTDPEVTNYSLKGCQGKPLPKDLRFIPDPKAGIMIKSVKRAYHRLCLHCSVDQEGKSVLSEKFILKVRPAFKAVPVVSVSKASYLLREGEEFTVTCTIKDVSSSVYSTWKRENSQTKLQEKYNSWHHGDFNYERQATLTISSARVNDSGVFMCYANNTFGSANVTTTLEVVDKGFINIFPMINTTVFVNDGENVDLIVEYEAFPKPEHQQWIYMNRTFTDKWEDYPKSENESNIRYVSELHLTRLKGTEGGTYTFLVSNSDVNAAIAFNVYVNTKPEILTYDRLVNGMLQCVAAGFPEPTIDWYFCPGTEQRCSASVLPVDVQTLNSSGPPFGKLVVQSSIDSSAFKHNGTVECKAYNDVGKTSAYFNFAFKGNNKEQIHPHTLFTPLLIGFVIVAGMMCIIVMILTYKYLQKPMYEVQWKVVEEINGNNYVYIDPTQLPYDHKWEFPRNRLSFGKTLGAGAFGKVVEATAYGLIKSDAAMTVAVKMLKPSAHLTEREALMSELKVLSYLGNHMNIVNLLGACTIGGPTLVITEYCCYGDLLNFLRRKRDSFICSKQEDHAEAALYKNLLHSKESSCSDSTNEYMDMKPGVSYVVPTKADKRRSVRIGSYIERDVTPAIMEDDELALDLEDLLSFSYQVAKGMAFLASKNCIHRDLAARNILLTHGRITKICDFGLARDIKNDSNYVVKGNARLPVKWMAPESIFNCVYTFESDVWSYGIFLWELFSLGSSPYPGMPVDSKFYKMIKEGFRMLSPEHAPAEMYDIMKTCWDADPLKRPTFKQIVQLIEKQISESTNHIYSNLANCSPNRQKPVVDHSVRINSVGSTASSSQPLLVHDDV

[15] = target: 468 kinases including some pathogenic mutants (Homo sapiens, UniProt P07333); assay: biochemical; format: binding; conditions: CSF1R-autoinhibited (Entrez CSF1R), 100 nM; read-out: Percent Control
[16] = target: 468 kinases including some pathogenic mutants (Homo sapiens, UniProt P52564); assay: biochemical; format: binding; conditions: MEK6 (Entrez MAP2K6), 1000 nM; read-out: Percent Control
468 kinases including some pathogenic mutants (Homo sapiens, UniProt P52564), sequence (P52564 whole entry, stated change not applied): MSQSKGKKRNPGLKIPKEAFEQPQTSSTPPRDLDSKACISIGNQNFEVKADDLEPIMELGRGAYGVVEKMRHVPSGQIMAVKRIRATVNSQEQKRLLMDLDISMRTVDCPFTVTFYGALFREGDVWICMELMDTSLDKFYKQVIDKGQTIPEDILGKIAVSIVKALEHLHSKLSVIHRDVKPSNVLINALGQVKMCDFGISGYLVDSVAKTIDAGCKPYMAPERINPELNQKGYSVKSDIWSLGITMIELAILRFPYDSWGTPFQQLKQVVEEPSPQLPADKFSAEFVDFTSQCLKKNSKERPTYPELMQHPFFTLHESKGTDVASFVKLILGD

[17] = target: ALK(C1156Y) (Homo sapiens, UniProt Q9UM73, C1156Y); assay: biochemical; format: binding; conditions: 1000 nM, read-out: Percent Control
[18] = target: PIK3CA(C420R) (Homo sapiens, UniProt P42336, C420R); assay: biochemical; format: binding; conditions: read-out: Percent Control
[19] = target: ABL1(F317L)-phosphorylated (Homo sapiens, UniProt P00519, F317L); assay: biochemical; format: binding; conditions: compound concentration 100 nM; Entrez ABL1; read-out: Percent Control
[20] = target: PIK3CA(E545K) (Homo sapiens, UniProt P42336, E545K); assay: biochemical; format: binding; conditions: read-out: Percent Control
[21] = target: RET(V804L) (Homo sapiens, UniProt P07949, V804L); assay: biochemical; format: binding; conditions: compound concentration 100 nM; Entrez RET; read-out: Percent Control
[22] = target: T1, FLT3(D835H) (Homo sapiens, UniProt P36888, D835H); assay: biochemical; format: binding; conditions: 1000 nM, read-out: Percent Control
[23] = target: ABL1(H396P)-nonphosphorylated (Homo sapiens, UniProt P00519, H396P); assay: biochemical; format: binding; conditions: read-out: Percent Control
[24] = target: PIK3CA(E545A) (Homo sapiens, UniProt P42336, E545A); assay: biochemical; format: binding; conditions: compound concentration 100 nM; Entrez PIK3CA; read-out: Percent Control
[25] = target: T1, FLT3(D835H); assay: biochemical; format: binding; conditions: compound concentration 100 nM; Entrez FLT3; read-out: Percent Control
[26] = target: ABL1(F317L)-nonphosphorylated (Homo sapiens, UniProt P00519, F317L); assay: biochemical; format: binding; conditions: read-out: Percent Control
[27] = target: ABL1(F317I)-phosphorylated (Homo sapiens, UniProt P00519, F317I); assay: biochemical; format: binding; conditions: read-out: Percent Control
[28] = target: BRAF(V600E) (Homo sapiens, UniProt P15056, V600E); assay: cell-based; conditions: HEK-293T; 1 μM inhibitor, HEK293T cells
BRAF(V600E), sequence (P15056 whole entry V600E): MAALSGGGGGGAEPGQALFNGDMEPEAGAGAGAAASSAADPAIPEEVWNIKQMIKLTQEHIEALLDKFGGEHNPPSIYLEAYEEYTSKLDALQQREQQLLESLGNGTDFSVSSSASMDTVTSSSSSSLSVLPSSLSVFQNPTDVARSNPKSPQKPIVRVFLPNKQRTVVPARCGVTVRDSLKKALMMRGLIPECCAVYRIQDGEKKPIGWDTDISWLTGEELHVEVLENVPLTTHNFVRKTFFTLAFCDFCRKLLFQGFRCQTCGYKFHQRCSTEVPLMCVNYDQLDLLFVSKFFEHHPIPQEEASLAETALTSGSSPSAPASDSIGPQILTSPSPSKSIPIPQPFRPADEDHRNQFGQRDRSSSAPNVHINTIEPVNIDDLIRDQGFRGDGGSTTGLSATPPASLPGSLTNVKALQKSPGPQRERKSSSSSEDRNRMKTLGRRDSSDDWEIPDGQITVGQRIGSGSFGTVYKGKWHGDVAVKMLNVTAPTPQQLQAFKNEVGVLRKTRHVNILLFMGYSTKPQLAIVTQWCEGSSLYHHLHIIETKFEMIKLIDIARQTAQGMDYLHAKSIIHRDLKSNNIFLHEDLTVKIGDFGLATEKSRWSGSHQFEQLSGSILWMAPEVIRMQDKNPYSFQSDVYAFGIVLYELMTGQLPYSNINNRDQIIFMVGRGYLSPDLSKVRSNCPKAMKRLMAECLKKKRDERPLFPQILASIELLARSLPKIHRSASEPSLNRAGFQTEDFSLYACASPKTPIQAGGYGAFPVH

[29] = target: WNK2 (Homo sapiens, UniProt Q9Y3S1); assay: scanMAX KINOMEscan (Eurofins); format: binding
WNK2, sequence (Q9Y3S1 whole entry): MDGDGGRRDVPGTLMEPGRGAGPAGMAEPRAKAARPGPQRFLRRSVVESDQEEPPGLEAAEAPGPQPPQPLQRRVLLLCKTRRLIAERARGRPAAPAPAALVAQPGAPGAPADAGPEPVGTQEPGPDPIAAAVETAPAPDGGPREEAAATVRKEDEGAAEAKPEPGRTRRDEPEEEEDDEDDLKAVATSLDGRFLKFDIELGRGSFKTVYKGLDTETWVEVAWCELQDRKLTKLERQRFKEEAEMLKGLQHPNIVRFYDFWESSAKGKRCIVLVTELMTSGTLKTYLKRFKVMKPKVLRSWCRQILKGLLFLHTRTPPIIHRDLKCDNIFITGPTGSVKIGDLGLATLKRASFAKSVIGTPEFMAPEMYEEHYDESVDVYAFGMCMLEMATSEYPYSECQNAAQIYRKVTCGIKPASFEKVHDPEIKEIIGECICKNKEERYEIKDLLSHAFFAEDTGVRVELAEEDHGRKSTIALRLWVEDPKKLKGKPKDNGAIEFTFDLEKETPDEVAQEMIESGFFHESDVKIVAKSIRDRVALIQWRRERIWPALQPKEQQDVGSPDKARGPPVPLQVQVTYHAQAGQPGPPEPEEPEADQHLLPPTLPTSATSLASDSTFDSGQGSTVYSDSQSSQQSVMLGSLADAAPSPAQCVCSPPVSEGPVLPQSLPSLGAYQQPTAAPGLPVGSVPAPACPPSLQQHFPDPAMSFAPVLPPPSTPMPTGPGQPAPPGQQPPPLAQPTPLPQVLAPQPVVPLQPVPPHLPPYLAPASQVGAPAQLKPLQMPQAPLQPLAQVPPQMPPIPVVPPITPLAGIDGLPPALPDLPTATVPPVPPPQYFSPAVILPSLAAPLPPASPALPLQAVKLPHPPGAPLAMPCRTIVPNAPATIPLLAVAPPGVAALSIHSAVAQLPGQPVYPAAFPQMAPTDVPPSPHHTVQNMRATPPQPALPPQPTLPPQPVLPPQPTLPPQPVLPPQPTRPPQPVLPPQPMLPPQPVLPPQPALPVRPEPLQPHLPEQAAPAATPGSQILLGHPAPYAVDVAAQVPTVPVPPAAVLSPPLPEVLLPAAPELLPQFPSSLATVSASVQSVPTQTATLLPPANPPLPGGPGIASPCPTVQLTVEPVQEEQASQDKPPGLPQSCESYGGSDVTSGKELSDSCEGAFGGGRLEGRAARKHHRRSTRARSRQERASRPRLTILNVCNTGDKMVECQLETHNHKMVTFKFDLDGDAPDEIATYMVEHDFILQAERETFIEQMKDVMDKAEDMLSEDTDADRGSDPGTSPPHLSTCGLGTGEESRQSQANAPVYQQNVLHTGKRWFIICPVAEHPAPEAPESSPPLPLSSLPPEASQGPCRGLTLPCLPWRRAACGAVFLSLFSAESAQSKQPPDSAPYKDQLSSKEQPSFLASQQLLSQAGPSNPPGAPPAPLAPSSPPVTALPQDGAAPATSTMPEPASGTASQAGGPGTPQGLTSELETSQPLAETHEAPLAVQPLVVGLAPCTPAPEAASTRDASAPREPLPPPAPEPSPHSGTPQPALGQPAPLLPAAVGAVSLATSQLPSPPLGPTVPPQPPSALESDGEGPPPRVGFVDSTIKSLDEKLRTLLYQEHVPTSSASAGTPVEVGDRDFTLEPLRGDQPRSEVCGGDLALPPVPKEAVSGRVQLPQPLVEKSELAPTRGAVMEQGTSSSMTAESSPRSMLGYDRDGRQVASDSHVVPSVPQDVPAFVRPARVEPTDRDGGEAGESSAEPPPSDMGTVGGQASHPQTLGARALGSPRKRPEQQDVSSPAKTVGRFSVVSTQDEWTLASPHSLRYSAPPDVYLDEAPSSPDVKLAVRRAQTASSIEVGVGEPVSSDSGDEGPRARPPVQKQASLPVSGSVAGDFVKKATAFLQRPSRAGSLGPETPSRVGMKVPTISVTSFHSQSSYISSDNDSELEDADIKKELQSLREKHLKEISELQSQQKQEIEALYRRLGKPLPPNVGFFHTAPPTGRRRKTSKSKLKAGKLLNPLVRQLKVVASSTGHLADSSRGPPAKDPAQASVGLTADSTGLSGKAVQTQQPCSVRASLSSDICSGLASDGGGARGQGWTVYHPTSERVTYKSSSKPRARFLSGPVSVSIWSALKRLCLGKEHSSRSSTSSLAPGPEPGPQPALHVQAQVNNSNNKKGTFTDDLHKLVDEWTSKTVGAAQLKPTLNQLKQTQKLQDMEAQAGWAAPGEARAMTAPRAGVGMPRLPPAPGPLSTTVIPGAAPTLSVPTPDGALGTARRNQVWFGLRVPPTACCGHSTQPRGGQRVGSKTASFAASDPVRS

[30] = target: ABL1(Y253F)-phosphorylated (Homo sapiens, UniProt P00519, Y253F); assay: biochemical; format: binding; conditions: read-out: Percent Control

## CN1C(=O)[C@@H](N2CCc3c(nn(Cc4ccccc4)c3C(N)=O)C2=O)COc2cc(Cl)ccc21 [Compound 10, (S)-2-benzyl-6-(8-chloro-5-methyl-4-oxo-2,3,4,5-tetrahydrobenzo[b][1,4]oxazepin-3-yl)-7-oxo-4,5,6,7-tetrahydro-2H-pyrazolo[3,4-c]pyridine-3-carboxamide]
[1]
  remaining activity at 1 µM: 94%
[2]
  remaining activity at 1 µM: 100%
[3]
  remaining activity at 1 µM: 86%
[4]
  remaining activity at 1 µM: 69%
[5]
  remaining activity at 0.1 µM: 72%
[6]
  remaining activity at 1 µM: 100%
[7]
  remaining activity at 0.1 µM: 100%
[8]
  remaining activity at 0.1 µM: 100%
[9]
  remaining activity at 0.1 µM: 77%
[10]
  remaining activity at 1 µM: 100%
[11]
  remaining activity at 0.1 µM: 78%
[12]
  remaining activity at 0.1 µM: 92%
[13]
  remaining activity at 0.1 µM: 88%
[14]; KIT (Entrez KIT)
  remaining activity at 0.1 µM: 69%
[14]; KIT-autoinhibited (Entrez KIT)
  remaining activity at 0.1 µM: 100%
[15]
  remaining activity at 0.1 µM: 80%
[16]
  remaining activity at 1 µM: 100%
[17]
  remaining activity at 1 µM: 82%
[18]
  remaining activity at 1 µM: 92%
[19]
  remaining activity at 0.1 µM: 100%
[20]
  remaining activity at 1 µM: 97%
[21]
  remaining activity at 0.1 µM: 84%
[22]
  remaining activity at 1 µM: 100%
[23]
  remaining activity at 1 µM: 66%
[24]
  remaining activity at 0.1 µM: 92%
[25]
  remaining activity at 0.1 µM: 84%
[26]
  remaining activity at 1 µM: 86%
[27]
  remaining activity at 1 µM: 100%
[28]
  receptor occupancy at 1 µM: -9.8%
[29]; WNK2 (Entrez WNK2), 100 nM, read-out: Percent Control
  remaining binding at 0.1 µM: 100%
[29]; WNK2, 1 μM, read-out: POC (Top Hits @ 1 μM)
  remaining binding at 1 µM: 49%
[29]; WNK2, 1000 nM, read-out: Percent Control
  remaining binding at 1 µM: 49%
[30]
  remaining activity at 1 µM: 85%
